Reference: publication PMC10374545, “A small molecule inhibitor of PTP1B and PTPN2 enhances T cell anti-tumor immunity” (Nature Communications, 2023)
Several values for one entry are separate records, joined by “and”; a condition that tells them apart may be missing. Equal entries are not always repeated.

Legend:
[1] = target: T1, PTP1B (Homo sapiens, UniProt P18031); test: Jump-dilution assay; format: biochemical; conditions: 30 min preincubation, 50-fold dilution into 100 µM DiFMUP
T1 construct: PTP1B, residues 1-321; made in house; host or cells: E. coli BL21(DE3)
T1 sequence (P18031 1-321): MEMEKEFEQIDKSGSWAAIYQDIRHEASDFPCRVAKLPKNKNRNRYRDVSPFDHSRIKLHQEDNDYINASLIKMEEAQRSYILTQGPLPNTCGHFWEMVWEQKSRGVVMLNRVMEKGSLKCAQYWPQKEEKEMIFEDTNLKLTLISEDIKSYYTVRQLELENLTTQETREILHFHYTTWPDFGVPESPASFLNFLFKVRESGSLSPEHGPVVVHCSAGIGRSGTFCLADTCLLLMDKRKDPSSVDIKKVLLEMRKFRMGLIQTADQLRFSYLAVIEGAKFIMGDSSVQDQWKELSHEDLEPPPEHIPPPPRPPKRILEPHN
Procedure: (§1) The reaction was allowed to proceed for 10 min under room temperature and was quenched by addition of a 160 µM solution of bpV(Phen). The fluorescence signal was measured using a CLARIOstar Plus Microplate Spectrophotometer (BMG Labtech) using excitation and emission wavelengths of 340 nm and 450 nm, respectively. Data were fitted using Prism GraphPad 9.2.0.

[2] = target: T2, PTPN2 (Homo sapiens, UniProt P17706); test: Jump-dilution assay; format: biochemical; conditions: 30 min preincubation, 50-fold dilution into 100 µM DiFMUP
T2 construct: PTPN2, residues 1-387; made in house; host or cells: E. coli BL21(DE3)
T2 sequence (P17706 1-387 isoform P17706-2): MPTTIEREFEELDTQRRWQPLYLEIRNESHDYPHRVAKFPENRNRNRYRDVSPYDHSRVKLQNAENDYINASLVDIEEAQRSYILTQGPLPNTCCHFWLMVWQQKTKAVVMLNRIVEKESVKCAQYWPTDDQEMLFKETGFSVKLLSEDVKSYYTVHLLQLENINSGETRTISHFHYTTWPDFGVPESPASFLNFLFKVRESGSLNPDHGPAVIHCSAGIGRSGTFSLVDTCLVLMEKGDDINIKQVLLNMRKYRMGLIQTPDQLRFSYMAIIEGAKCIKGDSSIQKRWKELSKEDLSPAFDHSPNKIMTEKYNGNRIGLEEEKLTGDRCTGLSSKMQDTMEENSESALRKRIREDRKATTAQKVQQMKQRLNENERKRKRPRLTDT
Procedure: as §1

[3] = test system: AT3-OVA mammary tumors; test: Tumor-infiltrating lymphocytes in AT3-OVA tumors (flow cytometry); format: in vivo, mouse; set-up: GRZMB, single mice / GRZMB, individual mice: unit not given here
Procedure: Single-cell suspensions from spleens and lymph nodes were obtained as described previously. For the detection of intracellular cytokines and granzyme B, T cells were fixed and permeabilized with the BD Cytofix/Cytoperm kit according to the manufacturer’s instructions. Briefly, T cells were first surface stained with fluorophore-conjugated antibodies and then fixed followed by permeabilization on ice for 20 min. Fixed and permeabilized cells were stained for IFN-γ, TNF, and granzyme B for 45 min at room temperature. For the detection of intracellular FoxP3 the Foxp3/Transcription Factor Staining Buffer Set (eBioscience) was used according to the manufacturer’s instructions. Briefly, cells were fixed and permeabilized for 1 h on ice followed by intracellular staining at room temperature for 45 min. For the detection of serum cytokines, the BD CBA Mouse Inflammation Kit™ was used according to the manufacturers’ instructions.
Cells (1 × 10^6/10 µl) were stained with the specified antibodies on ice for 30 min in D-PBS supplemented with 2% FBS in the dark and analyzed using a Fortessa or Symphony A3 (BD Biosciences). Data was acquired using BD FACS DIVA Software v8.0.1 and analyzed using FlowJo10 (Tree Star Inc.) software. Lymphocytes were gated for eYFP^+ cells to discriminate between PTPN2 sufficient and PTPN2 negative cells after poly(I:C)-induced PTPN2-deletion in Mx1-Cre;Ptpn2^fl/fl mice. For cell quantification, known numbers of Flow-Count Fluorospheres (Beckman Coulter) were added to samples before analysis. Dead cells were excluded with propidium iodide (1 μg/ml; Sigma-Aldrich). Paraformaldehyde fixed dead cells were excluded with the LIVE/DEAD™ Fixable Near-IR Dead Cell Stain Kit (Thermo Fisher Scientific).
Tumor-bearing mice were sacrificed and tumors were excised and digested at 37 °C for 30 min using a cocktail of 1 mg/ml collagenase type IV (Worthington Biochemicals) and 0.02 mg/ml DNase I (Sigma-Aldrich) in DMEM supplemented with 2% (v/v) FBS. Cells were passed through a 70 μm cell strainer (BD Biosciences) twice and processed for flow cytometry. For assessing T cell activation, cells were surface stained with fluorophore-conjugated antibodies to CD62L, CD44, PD-1, and TIM-3. For the assessment of NK cells, B cells, myeloid-derived suppressor cells (MDSCs), dendritic cells (DCs), and tumor-associated macrophages, cells were surface stained with fluorophore-conjugated antibodies to NK1.1, TCRβ, CD19, CD11b, CD11c, F4/80, Ly6C and Ly6G. For the detection of intracellular cytokines TNF and IFNγ, T cells were stimulated with PMA (20 ng/ml; Sigma-Aldrich) and ionomycin (1 μg/ml; Sigma-Aldrich) in the presence of GolgiPlug™ and GolgiStop™ (BD Biosciences) for 4 h at 37 °C in complete T cell medium. For the intracellular detection of granzyme B, cells were processed untreated without the addition of BD GolgiPlug™ and BD GolgiStop™.

[4] = C57BL/6, CMP-182 10 mg, n=8, Figure 5C
[5] = C57BL/6, CMP-182 10 mg, n=8, Figure 5D, in % (unit assumed)
[6] = C57BL/6, CMP-182 10 mg, n=8, Figure 5E
[7] = tumor-infiltrating CD8+ T cells, 10 mg/kg i.v., Fig. 3D raw data, listed as CMP-182, 10 mg/kg

**Q.** Which reversibility of inhibition [1] does the source give for `CC(C)(O)CCOc1ccc2cc(O)c(N3CC(=O)NS3(=O)=O)c(F)c2c1` [Compound 182, 5-(1-Fluoro-3-hydroxy-7-(3-hydroxy-3-methylbutoxy)naphthalen-2-yl)−1,2,5-thiadiazolidin-3-one 1,1-dioxide] here?
**A.** reversible

**Q.** What about the reversibility of inhibition [2] of the same compound?
**A.** reversible

**Q.** And the “TILs in AT3-OVA tumors” value ([3]; 10 mg/kg i.v.)?
**A.** increased TILs

**Q.** What about the “accumulation of NK cells and B cells in AT3-OVA tumors” value ([3]; 10 mg/kg i.v.) of the same compound?
**A.** increased the accumulation

**Q.** What about the “accumulation of Tregs and MDSCs in AT3-OVA tumors” value ([3]; 10 mg/kg i.v.) of the same compound?
**A.** promoted the accumulation

**Q.** And the “MDSCs, individual mice” value ([3]; C57BL/6, CMP-182 10 mg, n=7, Figure 5E)?
**A.** 48747.9 and 7096.22 and 17089.1 and 45092.3 and 47664.4 and 17646.1 and 31607.3

**Q.** And the “CD4 EM, individual mice” value [3, 4]?
**A.** 134557 and 47922.8 and 133424 and 44428.9 and 44587.5 and 55436.2 and 44822.8 and 60817.2

**Q.** And the “CD8 EM, individual mice” value [3, 4]?
**A.** 845401 and 186403 and 749030 and 169324 and 169003 and 192622 and 192657 and 178436

**Q.** And the “GRZMB, individual mice” value ([3]; C57BL/6, CMP-182 10 mg, n=8, Figure 5D)?
**A.** 25.6 and 28.7 and 25.8 and 29.2 and 51.4 and 33.2 and 36 and 28.4

**Q.** What about the “IFNg TNF, individual mice” value [3, 5] of the same compound?
**A.** 24.8 and 30.6 and 32 and 36.2 and 36.6 and 36.4 and 24 and 30.7

**Q.** What about the “PD-1 TIM-3, individual mice” value [3, 5] of the same compound?
**A.** 77.9 and 62.8 and 78.4 and 65.6 and 64.1 and 65.4 and 72.7 and 54.7

**Q.** What about the “B cells, individual mice” value [3, 6] of the same compound?
**A.** 170944 and 179918 and 255526 and 193357 and 175857 and 145133 and 135399 and 202633

**Q.** What about the “NK cells, individual mice” value [3, 6] of the same compound?
**A.** 58558.9 and 29752.3 and 40599.7 and 35764.2 and 59533.6 and 52754.4 and 30362.6 and 33110.9

**Q.** And the “Tregs, individual mice” value [3, 6]?
**A.** 74115.4 and 20349.3 and 83872.7 and 21555.9 and 26849.8 and 29117.6 and 19831.6 and 35834.4

**Q.** What about the “CD4 CM TILS (median)” value ([3]; Figure 3B, column B, n=8) of the same compound?
**A.** 11958, n=8

**Q.** And the “CD4 EM TILS (median)” value ([3]; Figure 3B, column B, n=8)?
**A.** 57270, n=8

**Q.** And the “CD8 CM TILS (median)” value ([3]; Figure 3B, column B, n=8)?
**A.** 16228, n=8

**Q.** What about the “CD8 EM TILS (median)” value ([3]; Figure 3B, column B, n=8) of the same compound?
**A.** 275442, n=8

**Q.** What about the “B cells TILS (median)” value ([3]; Figure 3C, column B, n=8) of the same compound?
**A.** 364105, n=8

**Q.** What about the “MDSCs TILS (median)” value ([3]; Figure 3C, column B, n=8) of the same compound?
**A.** 8604, n=8

**Q.** What about the “Nk cells TILS (median)” value ([3]; Figure 3C, column B, n=8) of the same compound?
**A.** 52917, n=8

**Q.** And the “Tregs TILS (median)” value ([3]; Figure 3C, column B, n=8)?
**A.** 35282, n=8

**Q.** And the “GRZB TILS (median)” value ([3]; Figure 3D, column B, n=8)?
**A.** 35.20, n=8

**Q.** And the “IFNg TNF TILS (median)” value ([3]; Figure 3D, column B, n=8)?
**A.** 31.60, n=8

**Q.** What about the “PD-1 Lag-3 TILS (median)” value ([3]; Figure 3D, column B, n=8) of the same compound?
**A.** 35.10, n=8

**Q.** What about the “PD-1 TIM-3 TILS (median)” value ([3]; Figure 3D, column B, n=8) of the same compound?
**A.** 50.75, n=8

**Q.** And the “GRZMB, single mice” value [3, 7]?
**A.** 38.7 and 39 and 35.1 and 25.9 and 27.7 and 35.3 and 28.6 and 36.2

**Q.** And the “PD-1 LAG-3, single mice” value [3, 7]?
**A.** 39.6 and 36.2 and 34 and 27 and 25.2 and 33.5 and 41.6

**Q.** What about the “PD-1 TIM-3, single mice” value ([3]; tumor-infiltrating CD8+ T cells, 10 mg/kg i.v., Fig. 3D raw data, listed as CMP-182, 10 mg/kg, in % (unit assumed)) of the same compound?
**A.** 64.6 and 50.1 and 56.3 and 51.4 and 49.7 and 42.6 and 48.5 and 63
